Results published in patent US6218425A, “8-substituted B-nor-6-Thiaequilenin compounds having activity as selective estrogen receptor modulators” (Eli Lilly and Company, priority 1997, dated 2001).

How the values were obtained:
ovariectomized rats = assay: Ovariectomized rat model of postmenopausal hyperlipidemia (serum cholesterol, uterine weight, uterine eosinophil infiltration); format: in vivo; conditions: for Serum Cholesterol % Decrease / Uterine Weight Increase: versus ovariectomized controls
Protocol: Experimental models of postmenopausal hyperlipidemia are known in the art.
This uterine response to estrogen is well recognized in the art.
As expressed in the data below, estrogenicity also was assessed by evaluating the response of eosinophil infiltration into the uterus.
The data presented in Table 2 reflect the response per treatment group.

estrogen receptor = estrogen receptor (Homo sapiens, UniProt P03372); conditions: competition with 0.5 nM 3H-17β-estradiol, MCF-7 lysate protein, 18 hours at 5° C.
Chain of estrogen receptor (P03372 whole entry): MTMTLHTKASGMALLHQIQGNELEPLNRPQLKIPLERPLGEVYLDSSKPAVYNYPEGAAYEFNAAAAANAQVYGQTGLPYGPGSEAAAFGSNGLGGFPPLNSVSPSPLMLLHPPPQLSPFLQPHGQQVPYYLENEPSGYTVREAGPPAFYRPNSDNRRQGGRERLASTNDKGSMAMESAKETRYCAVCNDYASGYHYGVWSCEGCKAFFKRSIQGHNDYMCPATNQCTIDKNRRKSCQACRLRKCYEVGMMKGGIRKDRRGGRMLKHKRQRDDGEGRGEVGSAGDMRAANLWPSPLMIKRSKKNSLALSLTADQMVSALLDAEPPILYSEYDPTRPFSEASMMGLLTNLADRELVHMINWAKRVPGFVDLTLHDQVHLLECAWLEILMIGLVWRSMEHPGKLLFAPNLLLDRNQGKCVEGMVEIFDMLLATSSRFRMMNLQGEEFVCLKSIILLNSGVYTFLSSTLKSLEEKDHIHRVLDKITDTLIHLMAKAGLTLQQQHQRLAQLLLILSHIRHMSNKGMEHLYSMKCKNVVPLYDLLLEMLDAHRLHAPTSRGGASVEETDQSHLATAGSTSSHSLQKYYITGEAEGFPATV
Protocol: Representative compounds of the present invention were tested in an estrogen receptor binding assay in which the test compounds were allowed to compete for binding with tritiated 17β-estradiol.
In the assay, serial dilutions of the test compound were mixed with 0.5 nM of ^3 H-17β-estradiol, along with 0.5 mg/mL of protein from MCF-7 lysates, to a total volume of 0.14 mL. Binding was allowed to take place for 18 hours at 5° C., followed by the addition of 0.07 mL of dextran/charcoal and centrifugation to remove non-bound radioligand. Aliquots of supernate containing bound radioligand were mixed with scintillant and counted. Relative binding affinity (RBA) was calculated as: [formula]

[1] = test system: MCF-7 breast adenocarcinoma cells; assay: MCF-7 Proliferation Assay; format: cell-based; conditions: dose level of 500 nM
Protocol: A. MCF-7 Proliferation Assay Test Procedure MCF-7 breast adenocarcinoma cells (ATCC HTB 22) are maintained in MEM (minimal essential medium, phenol-red free, Sigma St. Louis Mo.) supplemented with 10% fetal bovine serum (FBS) (v/v), L-glutamine (2 mM), sodium pyruvate ([…]), HEPES (10 mM), non-essential amino acids, and bovine insulin (1 ug/mL). Ten days prior to the assay, the MCF-7 cells are switched to maintenance medium supplemented with 10% dextran-coated charcoal stripped fetal bovine serum (DCC-FBS) assay medium in place of the 10% FBS to deplete internal stores of estrogen. MCF-7 cells are removed from the maintenance flasks using a cell dissociating medium (Ca/Mg free HBSS; phenol-red free) supplemented with 10 mM HEPES and 2 mM EDTA. Cells are washed twice with the assay medium and adjusted to 80,000 cells/mL. Approximately 100 uL (8,000 cells)are added to a flat-bottomed micro culture well (Costar 3596) and incubated at 37° C. in a 5% CO2 humidified incubator for 48 hours to allow cell adherence and equilibrium after transfer. […] Samples are counted by liquid scintillation. Fifty percent inhibitory concentration of the test drugs (IC50) are determined versus the control (DMSO).

Structure (SMILES) | eosinophil infiltration into the uterus (in words) (ovariectomized rats; EE2 group) | Uterine Eosinophil (Vmax) (eosinophil peroxidase, Vmaximum) (ovariectomized rats; dose 0.1 mg/kg) | Serum Cholesterol % Decrease (ovariectomized rats; dose 0.1 mg/kg) [%] | Uterine Weight Increase (ovariectomized rats; dose 0.1 mg/kg) [%] | serum cholesterol (in words) (ovariectomized rats; orally administered at 0.1 mg/kg/day) | uterine weight (in words) (ovariectomized rats; orally at 0.1 mg/kg/day, versus ovariectomized animals) | Uterine Eosinophil (Vmax) (eosinophil peroxidase, Vmaximum) (ovariectomized rats; dose 0.01 mg/kg) | Serum Cholesterol % Decrease (ovariectomized rats; dose 0.01 mg/kg) [%] | Uterine Weight Increase (ovariectomized rats; dose 0.01 mg/kg) [%] | Uterine Eosinophil (Vmax) (eosinophil peroxidase, Vmaximum) (ovariectomized rats; dose 1.0 mg/kg) | Serum Cholesterol % Decrease (ovariectomized rats; dose 1.0 mg/kg) [%] | Uterine Weight Increase (ovariectomized rats; dose 1.0 mg/kg) [%] | Uterine Eosinophil (Vmax) (eosinophil peroxidase, Vmaximum) (ovariectomized rats; dose 10.0 mg/kg) | Serum Cholesterol % Decrease (ovariectomized rats; dose 10.0 mg/kg) [%] | Uterine Weight Increase (ovariectomized rats; dose 10.0 mg/kg) [%] | Relative binding affinity (RBA) (estrogen receptor) | inhibition of breast cancer cell proliferation [1]
C#C[C@]1(O)CC[C@H]2[C@@H]3CCc4cc(O)ccc4[C@H]3CC[C@@]21C [EE2, 17-a-ethynyl estradiol, reference compound] | substantial and expected increase in eosinophil infiltration | 111.2 | 88.1 | 125.8 | caused a decrease in serum cholesterol | substantially greater than the uterine weight of the ovariectomized animals |  |  |  |  |  |  |  |  |  |  | 
COc1ccc2c3c(sc2c1)C1=CC[C@H](O)[C@@]1(C)CC3 [Example 1, 3β-Hydroxy-8-methoxy-3aβ-methyl-3,3a,4,5-tetrahydro-2H-benz[b]indeno[5,4-d]thiophene] |  | 5.4 | 5 | 6.3 |  |  | 4.5 | 30.0 | -4.6 | 4.8 | 27.5 | 34.9 | 25.2 | 60.3 | 52.7 |  | 
COc1ccc2c3c(sc2c1)[C@@H]1CC[C@@H](O)[C@]1(C)CC3 [Example 4a, 3α-Hydroxy-8-methoxy-3aα-methyl-2,3,3a,4,5,10bα-hexahydro-1H-benz[b]indeno[5,4-d]thiophene] |  | 3.6 | -5.5 | 10.4 |  |  |  |  |  | 3.3 | -8.1 | 14.8 | 2.4 | 63.8 | 37.6 |  | 
COc1ccc2c3c(sc2c1)[C@H]1CC[C@@H](O)[C@]1(C)CC3 [Example 4b, 3α-hydroxy-8-methoxy-3aα-methyl-2,3,3a,4,5,10bβ-hexahydro-1H-benz[b]indeno[5,4-d]thiophene] |  | 3.9 | -12 | -2.6 |  |  |  |  |  | 3.9 | -4.3 | 10.7 | 30.0 | 73.1 | 116.3 |  | 
COc1ccc2c3c(sc2c1)[C@@H]1CC[C@@H](O)[C@@]1(C)CC3 [Example 5, 3α-Hydroxy-8-methoxy-3aβ-methyl-2,3,3a,4,5,10bα-tetrahydro-1H-benz[b]indeno[5,4-d]thiophene] |  | 3.6 | -18.5 | 1.7 |  |  | 2.1 | 14.8 | -5.9 | 4.5 | 40.9 | 13.7 | 18.3 | 87.0 | 103.6 |  | 
COc1ccc2c3c(sc2c1)[C@H]1CC[C@H](O)[C@]1(C)CC3 [Example 6, 3β-Hydroxy-8-methoxy-3aα-methyl-2,3,3a,4,5,10bβ-tetrahydro-1H-benz[b]indeno[5,4-d]thiophene] |  | 3.0 | -0.3 | 4.8 |  |  |  |  |  | 1.2 | -4.7 | 9.8 | 8.1 | 63.7 | 86.9 |  | 
C[C@]12CCc3c(sc4cc(O)ccc34)[C@H]1CC[C@@H]2O [Example 7, 3β,8-Dihydroxy-3aβ-methyl-2,3,3a,4,5,10bβ-tetrahydro-1H-benz[b]indeno[5,4-d]thiophene] |  | 4.8 | 13 | 4.4 |  |  | 4.8 | 24.3 | -3.2 | 3.6 | 45.9 | 9.1 | 123.0 | 80.7 | 123.0 | 11 | inhibit breast cancer cell proliferation
C[C@]12CCc3c(sc4cc(O)ccc34)[C@@H]1CC[C@@H]2O [Example 8, 3β,8-Dihydroxy-3aβ-methyl-2,3,3a,4,5,10bα-tetrahydro-1H-benz[b]indeno[5,4-d]thiophene] |  | 4.5 | 10.6 | 1.4 |  |  | 4.2 | -1 | 13.7 | 3.0 | 16.9 | 0.2 | 14.7 | 30.7 | 48.4 | 16 | 
C[C@]12CCc3c(sc4cc(O)ccc34)[C@@H]1CC[C@H]2O [Example 9, 3α,8-Dihydroxy-3aβ-methyl-2,3,3a,4,5,10bα-tetrahydro-1H-benz[b]indeno[5,4-d]thiophene] |  | 3.3 | 12.4 | 10.2 |  |  | 4.5 | 5.7 | 5.5 | 3.9 | 32.1 | -5.3 | 106.5 | 90.9 | 103.1 | 9 | 
C[C@@]12CCc3c(sc4cc(O)ccc34)[C@@H]1CC[C@H]2O [Example 10, 3α,8-Dihydroxy-3aα-methyl-2,3,3a,4,5,10bα-tetrahydro-1H-benz[b]indeno[5,4-d]thiophene] |  |  |  |  |  |  |  |  |  |  |  |  |  |  |  | 4 | 
C[C@@]12CCc3c(sc4cc(O)ccc34)[C@H]1CC[C@H]2O [Example 11, 3α,8-Dihydroxy-3aα-methyl-2,3,3a,4,5,10bβ-tetrahydro-1H-benz[b]indeno[5,4-d]thiophene] |  |  |  |  |  |  |  |  |  |  |  |  |  |  |  | 4 | 
